According to PubChem BioAssay AID220 (DTP/NCI, 2004):
Where “and” joins values, the source holds several entries; their conditions need not be identical. Equal entries are not always repeated. Results filed as inconclusive are left out.

Tested on: CD8F1 mice, subcutaneous mammary adenocarcinoma, T/C%
Assay: NCI In Vivo Anticancer Drug Screen. Data for tumor model Mammary Adenocarcinoma CD8F1 (subcutaneous) in CD8F1
Settings: higher = larger tumour
How it was run: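 Ratio of treated to vehicle-control outcome, based on either survival or tumor size, in mice bearing transplantable tumors given the test compound.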

[1] = endpoint: median tumor weight change, dose: 100.0 mg/kg/injection, schedule: Q01DX001 (ip), vehicle: saline with Tween-80
[2] = endpoint: median tumor weight change, dose: 200.0 mg/kg/injection, schedule: Q01DX001 (ip), vehicle: saline with Tween-80
[3] = endpoint: median tumor weight (est.), dose: 12.5 mg/kg/injection, schedule: Q07DX005 (ip), vehicle: Klucel (hydroxypropylcellulose) (HPC)
[4] = endpoint: median tumor weight (est.), dose: 100.0 mg/kg/injection, schedule: Q07DX005 (ip), vehicle: Klucel (hydroxypropylcellulose) (HPC)
[5] = endpoint: median tumor weight (est.), dose: 200.0 mg/kg/injection, schedule: Q07DX005 (ip), vehicle: Klucel (hydroxypropylcellulose) (HPC)

SMILES: CC1=C2CC(C)(C)/C=C\C(=O)/C(C)=C\C3=C[C@H](C)C[C@]3(O2)C1=O
- T/C (endpoint: median tumor weight (est.), dose: 1.5 mg/kg/injection, schedule: Q07DX005 (ip), vehicle: Klucel (hydroxypropylcellulose) (HPC)): 78 % of control
- T/C (endpoint: median tumor weight (est.), dose: 1.5 mg/kg/injection, schedule: Q07DX005 (ip), vehicle: saline): 94 % of control
- T/C (endpoint: median tumor weight (est.), dose: 3.0 mg/kg/injection, schedule: Q07DX005 (ip), vehicle: Klucel (hydroxypropylcellulose) (HPC)): 212 % of control
- T/C (endpoint: median tumor weight (est.), dose: 6.0 mg/kg/injection, schedule: Q07DX005 (ip), vehicle: Klucel (hydroxypropylcellulose) (HPC)): 174 % of control
- T/C (endpoint: median tumor weight (est.), dose: 6.0 mg/kg/injection, schedule: Q07DX005 (ip), vehicle: saline): 112 % of control
- T/C (endpoint: median tumor weight (est.), dose: 12.0 mg/kg/injection, schedule: Q07DX005 (ip), vehicle: Klucel (hydroxypropylcellulose) (HPC)): 80 % of control
- T/C (endpoint: median tumor weight (est.), dose: 12.0 mg/kg/injection, schedule: Q07DX005 (ip), vehicle: saline): 88 % of control
- T/C (endpoint: median tumor weight (est.), dose: 24.0 mg/kg/injection, schedule: Q07DX005 (ip), vehicle: Klucel (hydroxypropylcellulose) (HPC)): 466 % of control
- T/C (endpoint: median tumor weight (est.), dose: 48.0 mg/kg/injection, schedule: Q07DX005 (ip), vehicle: saline): 44 % of control

SMILES: CC(C)[C@](O)(C(=O)OCC1=CC[N+]2([O-])CC[C@@H](O)[C@@H]12)[C@H](C)O (stereo partly specified)
- T/C (endpoint: median tumor weight (est.), dose: 25.0 mg/kg/injection, schedule: Q07DX005 (ip), vehicle: water): 81 % of control
- T/C (endpoint: median tumor weight (est.), dose: 50.0 mg/kg/injection, schedule: Q07DX005 (ip), vehicle: water): 67 % of control
- T/C (endpoint: median tumor weight (est.), dose: 100.0 mg/kg/injection, schedule: Q07DX005 (ip), vehicle: water): 42 % of control
- T/C (endpoint: median tumor weight (est.), dose: 200.0 mg/kg/injection, schedule: Q07DX005 (ip), vehicle: water): 79 % of control
- T/C (endpoint: median tumor weight (est.), dose: 400.0 mg/kg/injection, schedule: Q07DX005 (ip), vehicle: water): 59 % of control

SMILES: CCCN1COC(OCC)C(C)(C)C1 (stereo unspecified)
- T/C (endpoint: median tumor weight change, dose: 50.0 mg/kg/injection, schedule: Q01DX001 (ip), vehicle: saline with Tween-80): 102 % of control
- T/C [1]: 85 % of control
- T/C (endpoint: median tumor weight change, dose: 125.0 mg/kg/injection, schedule: Q01DX001 (ip), vehicle: saline with Tween-80): 66 % of control
- T/C [2]: 84 % of control
- T/C (endpoint: median tumor weight change, dose: 250.0 mg/kg/injection, schedule: Q01DX001 (ip), vehicle: saline with Tween-80): 47 % of control
- T/C (endpoint: median tumor weight change, dose: 500.0 mg/kg/injection, schedule: Q01DX001 (ip), vehicle: saline with Tween-80): 47 % of control

SMILES: CC1(C)N=C(N)N=C(N)N1c1ccc(CCCCc2ccc(S(=O)(=O)F)cc2Cl)c(Cl)c1
- T/C (endpoint: median tumor weight (est.), dose: 12.5 mg/kg/injection, schedule: Q07DX005 (ip), vehicle: other): 95 % of control
- T/C (endpoint: median tumor weight (est.), dose: 12.5 mg/kg/injection, schedule: Q07DX005 (ip), vehicle: saline): 42 % of control
- T/C (endpoint: median tumor weight (est.), dose: 12.5 mg/kg/injection, schedule: Q07DX005 (ip), vehicle: suspension in saline): 114 % of control
- T/C (endpoint: median tumor weight (est.), dose: 25.0 mg/kg/injection, schedule: Q07DX005 (ip), vehicle: saline): 60 % of control
- T/C (endpoint: median tumor weight (est.), dose: 25.0 mg/kg/injection, schedule: Q07DX005 (ip), vehicle: suspension in saline): 105 % of control
- T/C (endpoint: median tumor weight (est.), dose: 50.0 mg/kg/injection, schedule: Q07DX005 (ip), vehicle: saline): 39 % of control
- T/C (endpoint: median tumor weight (est.), dose: 50.0 mg/kg/injection, schedule: Q07DX005 (ip), vehicle: suspension in saline): 46 % of control
- T/C (endpoint: median tumor weight (est.), dose: 100.0 mg/kg/injection, schedule: Q07DX005 (ip), vehicle: saline): 20 % of control
- T/C (endpoint: median tumor weight (est.), dose: 100.0 mg/kg/injection, schedule: Q07DX005 (ip), vehicle: suspension in saline): 26 % of control
- T/C (endpoint: median tumor weight (est.), dose: 200.0 mg/kg/injection, schedule: Q07DX005 (ip), vehicle: saline): 5 % of control
- T/C (endpoint: median tumor weight (est.), dose: 200.0 mg/kg/injection, schedule: Q07DX005 (ip), vehicle: suspension in saline): 2 % of control
- T/C (endpoint: median tumor weight change, dose: 90.0 mg/kg/injection, schedule: Q01DX001 (ip), vehicle: saline with Tween-80): 50 % of control
- T/C [1]: 53 % of control
- T/C (endpoint: median tumor weight change, dose: 112.5 mg/kg/injection, schedule: Q01DX001 (ip), vehicle: saline with Tween-80): 84 % of control
- T/C (endpoint: median tumor weight change, dose: 133.0 mg/kg/injection, schedule: Q01DX001 (ip), vehicle: saline with Tween-80): 64 % of control
- T/C [2]: 12 % of control and 25 % of control
- T/C (endpoint: median tumor weight change, dose: 225.0 mg/kg/injection, schedule: Q01DX001 (ip), vehicle: saline with Tween-80): 49 % of control
- T/C (endpoint: median tumor weight change, dose: 300.0 mg/kg/injection, schedule: Q01DX001 (ip), vehicle: saline with Tween-80): 27 % of control
- T/C (endpoint: median tumor weight change, dose: 450.0 mg/kg/injection, schedule: Q01DX001 (ip), vehicle: saline with Tween-80): 12 % of control

SMILES: CC(C)NCC(O)COc1cccc2ccccc12 (stereo unspecified)
- T/C (endpoint: mean tumor weight, dose: 4.0 mg/kg/injection, schedule: Q07DX007 (ip), vehicle: Klucel (hydroxypropylcellulose) (HPC)): 61 % of control
- T/C (endpoint: mean tumor weight, dose: 8.0 mg/kg/injection, schedule: Q07DX007 (ip), vehicle: Klucel (hydroxypropylcellulose) (HPC)): 92 % of control
- T/C (endpoint: mean tumor weight, dose: 32.0 mg/kg/injection, schedule: Q07DX007 (ip), vehicle: Klucel (hydroxypropylcellulose) (HPC)): 88 % of control
- T/C (endpoint: mean tumor weight, dose: 64.0 mg/kg/injection, schedule: Q07DX007 (ip), vehicle: Klucel (hydroxypropylcellulose) (HPC)): 43 % of control

SMILES: Cc1c[nH]c(=O)[nH]c1=O
- T/C (endpoint: median tumor weight (est.), dose: 64.0 mg/kg/injection, schedule: Q07DX005 (ip), vehicle: Klucel (hydroxypropylcellulose) (HPC)): 214 % of control and 74 % of control
- T/C (endpoint: median tumor weight (est.), dose: 128.0 mg/kg/injection, schedule: Q07DX005 (ip), vehicle: Klucel (hydroxypropylcellulose) (HPC)): 112 % of control and 118 % of control

SMILES: c1ccc2c(NCCCCCCNc3c4ccccc4nc4ccccc34)c3ccccc3nc2c1
- T/C (endpoint: median tumor weight (est.), dose: 1.25 mg/kg/injection, schedule: Q07DX005 (ip), vehicle: Klucel (hydroxypropylcellulose) (HPC)): 97 % of control
- T/C (endpoint: median tumor weight (est.), dose: 2.5 mg/kg/injection, schedule: Q07DX005 (ip), vehicle: Klucel (hydroxypropylcellulose) (HPC)): 95 % of control
- T/C (endpoint: median tumor weight (est.), dose: 5.0 mg/kg/injection, schedule: Q07DX005 (ip), vehicle: Klucel (hydroxypropylcellulose) (HPC)): 58 % of control
- T/C (endpoint: median tumor weight (est.), dose: 20.0 mg/kg/injection, schedule: Q07DX005 (ip), vehicle: Klucel (hydroxypropylcellulose) (HPC)): 47 % of control

SMILES: C=Cc1cnc([N+](=O)[O-])n1C
- T/C [3]: 122 % of control
- T/C (endpoint: median tumor weight (est.), dose: 25.0 mg/kg/injection, schedule: Q07DX005 (ip), vehicle: Klucel (hydroxypropylcellulose) (HPC)): 92 % of control
- T/C [4]: 42 % of control
- T/C [5]: 30 % of control

SMILES: CN(C)CCOc1ccc2c(c1)C/C(=C/c1ncc([N+](=O)[O-])n1C)C2=O
- T/C (endpoint: median tumor weight (est.), dose: 12.5 mg/kg/injection, schedule: Q07DX005 (ip), vehicle: saline with Tween-80): 113 % of control
- T/C (endpoint: median tumor weight (est.), dose: 25.0 mg/kg/injection, schedule: Q07DX005 (ip), vehicle: saline with Tween-80): 100 % of control
- T/C (endpoint: median tumor weight (est.), dose: 50.0 mg/kg/injection, schedule: Q07DX005 (ip), vehicle: saline with Tween-80): 93 % of control
- T/C (endpoint: median tumor weight (est.), dose: 100.0 mg/kg/injection, schedule: Q07DX005 (ip), vehicle: saline with Tween-80): 61 % of control

SMILES: CCCCCC#CC1OC12CCCCC2 (stereo unspecified)
- T/C [1]: 37 % of control
- T/C [2]: 106 % of control
- T/C (endpoint: median tumor weight change, dose: 400.0 mg/kg/injection, schedule: Q01DX001 (ip), vehicle: saline with Tween-80): 51 % of control
- T/C (endpoint: median tumor weight change, dose: 800.0 mg/kg/injection, schedule: Q01DX001 (ip), vehicle: saline with Tween-80): 100 % of control

SMILES: CCCCCCCCCCCCCCCCCCOCC(COP(=O)([O-])OCC[N+](C)(C)C)OC (stereo unspecified)
- T/C (endpoint: median tumor weight change, dose: 1.95 mg/kg/injection, schedule: Q01DX001 (ip), vehicle: saline): 97 % of control
- T/C (endpoint: median tumor weight change, dose: 3.9 mg/kg/injection, schedule: Q01DX001 (ip), vehicle: saline): 67 % of control
- T/C (endpoint: median tumor weight change, dose: 7.8 mg/kg/injection, schedule: Q01DX001 (ip), vehicle: saline): 95 % of control
- T/C (endpoint: median tumor weight change, dose: 15.62 mg/kg/injection, schedule: Q01DX001 (ip), vehicle: saline): 48 % of control
- T/C (endpoint: median tumor weight change, dose: 31.0 mg/kg/injection, schedule: Q01DX001 (ip), vehicle: suspension in saline): 79 % of control
- T/C (endpoint: median tumor weight change, dose: 31.25 mg/kg/injection, schedule: Q01DX001 (ip), vehicle: saline): 100 % of control
- T/C (endpoint: median tumor weight change, dose: 62.0 mg/kg/injection, schedule: Q01DX001 (ip), vehicle: suspension in saline): 75 % of control

SMILES: CC(=O)OCc1cc(=O)n(C)c2c3c4c(cc12)c(C)cc(=O)n4CO3
- T/C (endpoint: median tumor weight (est.), dose: 6.25 mg/kg/injection, schedule: Q07DX005 (ip), vehicle: Klucel (hydroxypropylcellulose) (HPC)): 42 % of control
- T/C [3]: 66 % of control and 78 % of control
- T/C [4]: 19 % of control and 43 % of control
- T/C [5]: 22 % of control and 26 % of control

SMILES: CCC(C(=O)O)C(=O)O.[NH-]CC1CCCC[N-]1.[Pt+2]
- T/C (endpoint: median tumor weight change, dose: 125.0 mg/kg/injection, schedule: Q01DX001 (ip), vehicle: saline): 51 % of control

SMILES: COc1cc(OC)c(OC)cc1/C=C\c1ccnc2ccccc12
- T/C (endpoint: median tumor weight (est.), dose: 50.0 mg/kg/injection, schedule: Q07DX005 (ip), vehicle: Klucel (hydroxypropylcellulose) (HPC)): 86 % of control
- T/C [4]: 55 % of control
- T/C [5]: 78 % of control
